Laboratory results taken from PMC10269165 (Antimicrobial Agents and Chemotherapy, 2023).
Read-outs that look alike come from different tables or passages of the source.

What was measured:
AcPMT1 = AcPMT1 (Ancylostoma duodenale, UniProt A0A0C2DEB6); assay: biochemical; type: biochemical; details: for Selectivity index (SI) AcPMT1: IC50^Cytotoxicity/IC50^Enzyme
Protocol: (§1) The chemical compounds were obtained from the National Cancer Institute/Developmental Therapeutics Program Open Chemical Repository. […] Compounds were individually reconstituted in molecular biology grade dimethyl sulfoxide (DMSO) from Sigma-Aldrich to a stock concentration of 10 mM and stored at −20°C until use. Initial screening was conducted using recombinant HcPMT1 protein as enzyme in the methyltransferase assay, with test compounds at a final concentration of 40 μM. […] To the positive reaction mixture, instead of test compound, an equivalent volume of DMSO was added. In the negative-control reaction mixture, instead of HcPMT1 and test compound, equivalent volumes of 1× transferase buffer and DMSO, respectively, were added. Detection buffer (100 μL) containing fluorescence substrate was added into each reaction mixture. The reactions were prepared in triplicate wells in 96-well plates. The plates were covered in aluminum foil and incubated at room temperature with agitation for 30 min, followed by reading the fluorescence at 380EX/520EM. The mean percent inhibition (MPI) of the test compound on enzymatic activity was calculated using the following formula: MPI = ΔRFUpositive control − ΔRFUcompounds/ΔRFUpositive control × 100, where the positive control is a reaction without compound but with recombinant PMT protein and a volume of DMSO equivalent to that of compound used in test reactions; the negative control is the reaction without protein and compounds, but with volumes of dialysis buffer and DMSO equivalent to protein and compound added in the test reaction mixtures, respectively; ΔRFUpositive control represents the absolute relative fluorescence units (RFU) for the positive control, which equals RFUpositive control – RFUnegative control; and ΔRFUcompounds represents the absolute RFU value for the sample with the compounds, which equals RFUcompounds – RFUnegative control.
(§2) The enzymatic assay was set up as described above, with the respective PMT protein as enzyme.

OdPMT = OdPMT (Oesophagostomum dentatum, UniProt A0A0B1TAL6); assay: biochemical; type: biochemical; details: for Selectivity index (SI) OdPMT: IC50^Cytotoxicity/IC50^Enzyme;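 for Selectivity index (SI) OdPMT: cytotoxicity IC50 measured in HCT-8 cells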
Protocol: as §1, §2

DvPMT1 = DvPMT1 (Dictyocaulus viviparus, UniProt A0A0D8Y714); assay: biochemical; type: biochemical; details: for Selectivity index (SI) DvPMT1: IC50^Cytotoxicity/IC50^Enzyme
Protocol: as §1, §2

HcPMT1 = HcPMT1 (Haemonchus contortus, UniProt U5HK46); assay: biochemical; type: biochemical; details: for Selectivity index (SI) HcPMT1: IC50^Cytotoxicity/IC50^Enzyme
Protocol: as §1, §2

TcPMT = TcPMT (Toxocara canis, UniProt A0A0B2VTW9); assay: biochemical; type: biochemical; details: for Selectivity index (SI) TcPMT: IC50^Cytotoxicity/IC50^Enzyme
Protocol: as §1, §2

[1] = test system: nematode PMTs (HcPMT1, AcPMT1, AsPMT, DvPMT1, OdPMT1, TcPMT); assay: Cross-inhibition of the panel of nematode PMTs (statements on all PMTs together); type: biochemical, parasitic nematodes; details: for cross-inhibitory activity against all the five PMTs: 40 μM, AcPMT1, AsPMT, DvPMT1, OdPMT1, TcPMT; for SI values based on the IC50^Enzyme values of the PMT proteins tested: all six PMTs of Table 4
Protocol: The chemical compounds were obtained from the National Cancer Institute/Developmental Therapeutics Program Open Chemical Repository. The library consisted of 419 compounds categorized as Natural Products Set IV (see Table S1). Compounds were individually reconstituted in molecular biology grade dimethyl sulfoxide (DMSO) from Sigma-Aldrich to a stock concentration of 10 mM and stored at −20°C until use. Initial screening was conducted using recombinant HcPMT1 protein as enzyme in the methyltransferase assay, with test compounds at a final concentration of 40 μM. The test reaction mixtures consisted of 40 μM test compound, 2.5 μL of SAM-free methyltransferase reaction buffer, 150 μM PE (pH 7.5), 120 μM SAM (pH 7.8), and 20 ng/μL of HcPMT1 protein, and the final volume made up to 50 μL with 1× transferase assay buffer. […] To the positive reaction mixture, instead of test compound, an equivalent volume of DMSO was added. In the negative-control reaction mixture, instead of HcPMT1 and test compound, equivalent volumes of 1× transferase buffer and DMSO, respectively, were added. Detection buffer (100 μL) containing fluorescence substrate was added into each reaction mixture. The reactions were prepared in triplicate wells in 96-well plates. The plates were covered in aluminum foil and incubated at room temperature with agitation for 30 min, followed by reading the fluorescence at 380EX/520EM. The mean percent inhibition (MPI) of the test compound on enzymatic activity was calculated using the following formula: MPI = ΔRFUpositive control − ΔRFUcompounds/ΔRFUpositive control × 100, where the positive control is a reaction without compound but with recombinant PMT protein and a volume of DMSO equivalent to that of compound used in test reactions; the negative control is the reaction without protein and compounds, but with volumes of dialysis buffer and DMSO equivalent to protein and compound added in the test reaction mixtures, respectively; ΔRFUpositive control represents the absolute relative fluorescence units (RFU) for the positive control, which equals RFUpositive control – RFUnegative control; and ΔRFUcompounds represents the absolute RFU value for the sample with the compounds, which equals RFUcompounds – RFUnegative control.
Compounds that had shown more than 50% inhibition on HcPMT1 activity and had no or very low cytotoxicity against HCT-8 cells were further tested for cross-inhibitory effect against the enzymatic activity of other recombinant PMT proteins (AcPMT1, AsPMT, DvPMT1, OdPMT, and TcPMT) at 40 μM. The enzymatic assay was set up as described above, with the respective PMT protein as enzyme. Compounds that depicted cross-inhibitory activity were further tested at various concentrations to derive their half-maximal effective concentrations (EC50) using nonlinear regression analysis by GraphPad Prism software.

[2] = test system: H. contortus, susceptible (TxPh-2011-S) and MDR (UGA MDR 2020) isolates; assay: Larval development assay (LDA); type: cell-based, Haemonchus contortus; details: for Hill slope: LDA dose-response curve; for anthelmintic activity in LDA: drug-susceptible and MDR isolates
[3] = read-out: Mean IC50 ± SEM, Enzyme AcPMT1
[4] = read-out: Mean IC50 ± SEM, Enzyme OdPMT
[5] = read-out: Mean IC50 ± SEM, Enzyme DvPMT1
[6] = read-out: Mean IC50 ± SEM, Enzyme HcPMT1
[7] = read-out: Mean IC50 ± SEM, Enzyme TcPMT
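Throughout, for Selectivity index (SI) AcPMT1: cytotoxicity IC50 measured in HCT-8 cells.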
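Throughout, for Selectivity index (SI) DvPMT1: cytotoxicity IC50 measured in HCT-8 cells.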
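Throughout, for Selectivity index (SI) HcPMT1: cytotoxicity IC50 measured in HCT-8 cells.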
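Throughout, for Selectivity index (SI) TcPMT: cytotoxicity IC50 measured in HCT-8 cells.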

DvPMT1, sequence (A0A0D8Y714 entry or part of it): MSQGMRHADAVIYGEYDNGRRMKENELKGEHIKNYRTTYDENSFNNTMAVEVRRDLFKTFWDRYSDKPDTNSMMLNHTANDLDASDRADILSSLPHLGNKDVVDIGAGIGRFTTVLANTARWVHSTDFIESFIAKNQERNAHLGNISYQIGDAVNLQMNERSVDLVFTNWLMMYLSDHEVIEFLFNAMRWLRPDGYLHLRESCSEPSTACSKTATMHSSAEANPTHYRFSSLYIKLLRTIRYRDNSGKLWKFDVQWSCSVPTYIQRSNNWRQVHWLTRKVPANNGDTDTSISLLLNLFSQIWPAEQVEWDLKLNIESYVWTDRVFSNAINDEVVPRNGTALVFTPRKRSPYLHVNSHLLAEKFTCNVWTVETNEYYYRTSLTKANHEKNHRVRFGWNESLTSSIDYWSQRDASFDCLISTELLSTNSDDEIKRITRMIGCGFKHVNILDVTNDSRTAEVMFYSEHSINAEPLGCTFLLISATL
TcPMT, sequence (A0A0B2VTW9 entry or part of it): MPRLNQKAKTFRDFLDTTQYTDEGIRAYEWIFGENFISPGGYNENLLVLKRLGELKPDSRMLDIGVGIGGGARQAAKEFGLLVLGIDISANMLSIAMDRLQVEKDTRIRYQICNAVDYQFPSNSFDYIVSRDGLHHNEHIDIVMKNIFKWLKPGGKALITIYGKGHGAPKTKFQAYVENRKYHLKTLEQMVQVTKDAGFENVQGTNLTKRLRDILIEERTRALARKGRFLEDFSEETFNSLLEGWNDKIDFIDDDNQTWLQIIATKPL
OdPMT, sequence (A0A0B1TAL6 entry or part of it): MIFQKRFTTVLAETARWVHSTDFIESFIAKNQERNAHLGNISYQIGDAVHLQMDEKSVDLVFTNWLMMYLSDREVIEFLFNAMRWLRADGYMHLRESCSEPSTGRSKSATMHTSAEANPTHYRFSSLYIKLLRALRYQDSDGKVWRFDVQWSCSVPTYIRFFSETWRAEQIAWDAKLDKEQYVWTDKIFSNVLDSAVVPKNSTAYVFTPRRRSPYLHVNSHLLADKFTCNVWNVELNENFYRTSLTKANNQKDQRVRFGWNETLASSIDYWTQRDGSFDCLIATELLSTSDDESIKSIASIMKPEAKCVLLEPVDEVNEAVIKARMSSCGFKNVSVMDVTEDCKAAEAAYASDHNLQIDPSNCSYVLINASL
HcPMT1, sequence (U5HK46 entry or part of it): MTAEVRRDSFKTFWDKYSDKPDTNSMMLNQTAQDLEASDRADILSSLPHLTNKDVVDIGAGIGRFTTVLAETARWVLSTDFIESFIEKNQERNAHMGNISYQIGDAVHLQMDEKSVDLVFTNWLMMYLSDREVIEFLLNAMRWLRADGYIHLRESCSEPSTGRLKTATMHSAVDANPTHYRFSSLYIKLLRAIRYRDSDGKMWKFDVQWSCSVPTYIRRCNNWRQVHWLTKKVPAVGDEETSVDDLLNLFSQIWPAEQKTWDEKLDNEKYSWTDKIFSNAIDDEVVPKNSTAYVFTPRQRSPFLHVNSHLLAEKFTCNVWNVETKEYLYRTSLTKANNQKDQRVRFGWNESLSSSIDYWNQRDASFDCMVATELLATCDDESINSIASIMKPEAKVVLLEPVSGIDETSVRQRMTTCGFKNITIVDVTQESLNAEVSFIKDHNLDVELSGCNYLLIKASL
AcPMT1, sequence (A0A0C2DEB6 entry or part of it): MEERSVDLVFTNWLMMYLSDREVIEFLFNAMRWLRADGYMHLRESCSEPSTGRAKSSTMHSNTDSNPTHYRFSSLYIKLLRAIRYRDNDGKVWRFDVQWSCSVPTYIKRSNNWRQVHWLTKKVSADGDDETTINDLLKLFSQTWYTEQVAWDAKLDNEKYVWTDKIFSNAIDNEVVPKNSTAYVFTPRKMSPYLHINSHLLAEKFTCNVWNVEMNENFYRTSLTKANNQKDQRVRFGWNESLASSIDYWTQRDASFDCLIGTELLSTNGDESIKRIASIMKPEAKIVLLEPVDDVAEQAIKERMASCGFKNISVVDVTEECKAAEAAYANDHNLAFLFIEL

Compound | Selectivity index (SI) AcPMT1 (AcPMT1) | IC50 (AcPMT1; [3]) [µM] | Selectivity index (SI) OdPMT (OdPMT) | IC50 (OdPMT; [4]) [µM] | Selectivity index (SI) DvPMT1 (DvPMT1) | IC50 (DvPMT1; [5]) [µM] | Selectivity index (SI) HcPMT1 (HcPMT1) | IC50 (HcPMT1; [6]) [µM] | Selectivity index (SI) TcPMT (TcPMT) | IC50 (TcPMT; [7]) [µM] | cross-inhibitory activity against all the five PMTs [1] | SI values based on the IC50^Enzyme values of the PMT proteins tested [1] | fold higher potency than NSC145612 ([2]; LDA IC50) | Hill slope [2] | anthelmintic activity in LDA [2] | further results
O=c1c(O)cccc2cc(O)c(O)c(O)c12 [NSC35676, purpurogallin] | 49.02 | 11.5 ± 0.94 | 33.80 | 16.8 ± 0.41 | 13.44 | 42.1 ± 3.16 | 27.96 | 20.2 ± 1.64 | 12.35 | 45.9 ± 2.9 | significant cross-inhibitory activity | > 1 | – | – | – | –
CO[C@@]12[C@H](COC(N)=O)C3=C(C(=O)C(C)=C(N)C3=O)N1C[C@H]1[C@@H]2N1C (stereo partly drawn) [NSC56410] | 2.75 | – | 0.90 | – | 0.10 | – | 3.52 | – | 2.23 | – | significant cross-inhibitory activity | – | ~39 fold | 0.45 | activity in the lower micromolar range | IC50 ([2]; Haemonchus contortus, read-out: Anthelmintic IC50 by LDA (95% confidence interval)): 0.8 µM; fold higher potency than NSC133100 ([2]; LDA IC50): ~ 5 fold; fold higher potency than NSC177383 ([2]; LDA IC50): ~6 fold; IC50 (AcPMT1): 68.4 ± 5.39 µM; IC50 (OdPMT): 210 ± 73.5 µM; IC50 (DvPMT1): 1920 µM; IC50 (HcPMT1): 53.5 ± 5.85 µM; IC50 (TcPMT): 84.5 ± 6.53 µM
COc1ccc(-c2c(C)c(C(=O)O)nc(-c3ccc4c(O)c(OC)c5c(c4n3)=NC(C)(C)N=5)c2N)c(O)c1OC [NSC62709] | 22.31 | 13.4 ± 1.3 | 9.39 | 31.8 ± 1.8 | 10.24 | 29.2 ± 2.13 | 10.86 | 27.5 ± 1.97 | 10.83 | 27.6 ± 1.26 | significant cross-inhibitory activity | > 1 | – | – | – | –
COc1cc(C)c2c(c1C=O)Oc1c(c(C)c(O)c3c1C(O)OC3=O)OC2=O (stereo not drawn) [NSC87511] | 2.61 | 65.8 ± 9.78 | 0.35 | 488 ± 162 | 0.34 | 504 ± 188 | 1.10 | 157 ± 26 | 0.35 | 496 ± 184 | significant cross-inhibitory activity | – | – | – | – | –
CO[C@H]1/C=C/O[C@@]2(C)Oc3c(C)c(O)c4c(O)c(cc(O)c4c3C2=O)NC(=O)/C(C)=C\C=C\[C@H](C)[C@H](O)[C@@H](C)[C@@H](O)[C@@H](C)[C@H](OC(C)=O)[C@@H]1C [NSC133100] | 3.23 | 31.5 ± 2.25 | 1.07 | 94.7 ± 5.03 | 1.15 | 88.2 ± 4.14 | 3.67 | 27.8 ± 1.71 | 1.03 | 99.1 ± 9 | significant cross-inhibitory activity | > 1 | ~ 7 fold | 0.60 | activity in the lower micromolar range | –
CO[C@@H]1/C=C\O[C@]2(C)Oc3c(C)c(O)c4c(O)c(c(CN(C)C)c(O)c4c3C2=O)NC(=O)/C(C)=C\C=C[C@@H](C)[C@@H](O)[C@H](C)[C@@H](O)[C@H](C)[C@H](OC(C)=O)[C@@H]1C [NSC145612] | 11.05 | 27.4 ± 2.92 | 9.11 | 33.2 ± 2.26 | 5.49 | 55.1 ± 4.46 | 10.83 | 27.9 ± 1.57 | 2.77 | 109 ± 12.6 | significant cross-inhibitory activity | > 1 | – | 0.79 | activity in the lower micromolar range | –
CO[C@@H]1/C=C/O[C@@]2(C)Oc3c(C)c(O)c4c(c3C2=O)C(=N[C@@H]2CC[C@@H](O)O[C@H]2C)C=C(NC(=O)/C(C)=C\C(=O)[C@@H]2C[C@@H]2[C@H](O)[C@@H](C)[C@@H](O)[C@@H](C)[C@H](OC(C)=O)[C@@H]1C)C4=O [NSC177383] | 5.76 | 14.8 ± 2.06 | 3.20 | 26.7 ± 2 | 1.80 | 47.6 ± 7.41 | 3.93 | 21.7 ± 2.05 | 2.07 | 41.3 ± 2.8 | significant cross-inhibitory activity | > 1 | ~ 7 fold | 1.23 | activity in the lower micromolar range | –
